In patent publication US20200206198A1, “CFTR CHANNEL ACTIVATOR FOR USE IN THE TREATMENT AND/OR PREVENTION OF GLUTEN SENSITIVITY CONDITIONS” (priority 2017, published 2020):

Assays:
[1] = system: NOD mice transgenic for HLA DQ8 (NOD-DQ8); assay: NOD-DQ8 mice orally challenged with gliadin; assay type: in vivo, mouse
Excerpt: In the second model of gluten sensitivity, the Applicant resorted to non-obese diabetic (NOD) female mice, which spontaneously develop autoimmune type-1 diabetes (Maurano, F., et al. 2005).
BALB/c mice (background BALB/cAnNCrl) were purchased from Charles River (Varese, Italy). Three generation gluten-free diet (Mucedola srl, Milan), male and female, were challenged with gliadin for 4 weeks. […]
Chambers for mounting either transwell cell cultures or mouse tissue biopsies were obtained from Physiologic Instruments (model P2300, San Diego, Calif., USA). […] Shortcircuit current (expressed as Isc (μA/cm2)) and resistance were acquired or calculated using the VCC600 transepithelial clamp from Physiologic Instruments and the Acquire & Analyze 2.3 software for data acquisition (Physiologic Instruments), as previously described Tosco A, et al. 2016; Romani, L. et al. 2017).
ELISA analysis was performed on tissue samples using standard ELISA kits (R&D Systems) for IL-15, IL-17A, INFγ IL21, IL10, TGF-β. […] Samples were read in triplicate at 450 nm in a Microplate Reader (BioRad, Milan, Italy) using Microplate Manager 5.2.1 software. Values were normalized to protein concentration evaluated by Bradford analysis. […]

[2] = system: rhNBD1 and its double mutants F400A/E403A and P439A/P477A; assay: Native polyacrylamide electrophoresis (BN-PAGE) of biotinylated peptide with rhNBD1; assay type: binding, human
Procedure: Peptide-protein interactions were further studied exploiting a different biochemical strategy: recombinant NBD1, both wild type and/or its mutants, were incubated at 4° C. for 30′ in 40 mM Tris pH 7.5 in the presence of the biotinylated P31-43 peptide unless otherwise indicated and resolved in native conditions by BN-PAGE (Novex, Invitrogen). The complexes were then blotted onto PVDF membrane in accordance with the manufacturer's instructions and the interacting partners were detected with streptavidin-HRP antibody (PerkinElmer).
e-f, Blue native PAGE western blotting of P31-43 and P57-68 biotinylated peptides in the presence of rhNBD1 (e), and of WT and double NBD1 mutants in the presence of biotinylated P31-43 (0. g, SPR analysis of 4QA peptide on rhNBD1 covalently bound to CMS sensor chip. h-i, treatment of Caco-2 cells with P31-43 or P31-43 modified in different Q or P positions. (h) Assessment in Ussing chambers of CFTR-dependent Cl^− secretion measured by forskolin-induced (Fsk) increase of the chloride current (Isc (μA/cm^2); quantification of the peak CFTR Inhibitor 172 (CFTRinh172)-sensitive Isc (ΔIsc). (i) Assessment of iodide efflux by SPQ fluorescent probe upon stimulation with forskolin (Fsk) expressed as percentage of CFTR function in the presence or absence of peptide challenge. […]

Compound	effect on gliadin-induced increase of IFN-γ [1]	binding to native rhNBD1 [2]	binding to rhNBD1 double mutants F400A/E403A and P439A/P477A [2]
CC(C)(C)c1cc(C(C)(C)C)c(NC(=O)c2c[nH]c3ccccc3c2=O)cc1O [VX-770, N-(2,4-di-tert-butyl-5-hydroxyphenyl)-4-oxo-1,4-dihydroquinoline-3-carboxamide]	counteracted the gliadin-induced increase of IFN-γ		
α-gliadin peptide LGQQQPFPPQQPY (SEQ ID 1), induces an enterocyte stress response (P31-43 sequence of alpha-gliadin)		bound to rhNBD1	attenuated for both rhNBD1 mutants
